Measurements: US7582649B2, “Hydroxy alkyl substituted 1,3,8-triazaspiro[4.5]decan-4-one derivatives useful for the treatment of ORL-1 receptor mediated disorders” (Janssen Pharmaceutica, NV, priority 2002, dated 2009)
pIC50: −log10 of the molar value. Like-named read-outs stand apart in the source and are kept apart here.

Tests used:
kappa opioid receptor = kappa opioid receptor (Homo sapiens, UniProt P41145); assay: Filtration binding assay: kappa opioid receptor
Long-Evans Hooded rats [1] = details: male, rat, in vivo, po
delta opioid receptor = delta opioid receptor (Homo sapiens, UniProt P41143); assay: Filtration binding assay: delta opioid receptor
Chain of delta opioid receptor (P41143 whole entry): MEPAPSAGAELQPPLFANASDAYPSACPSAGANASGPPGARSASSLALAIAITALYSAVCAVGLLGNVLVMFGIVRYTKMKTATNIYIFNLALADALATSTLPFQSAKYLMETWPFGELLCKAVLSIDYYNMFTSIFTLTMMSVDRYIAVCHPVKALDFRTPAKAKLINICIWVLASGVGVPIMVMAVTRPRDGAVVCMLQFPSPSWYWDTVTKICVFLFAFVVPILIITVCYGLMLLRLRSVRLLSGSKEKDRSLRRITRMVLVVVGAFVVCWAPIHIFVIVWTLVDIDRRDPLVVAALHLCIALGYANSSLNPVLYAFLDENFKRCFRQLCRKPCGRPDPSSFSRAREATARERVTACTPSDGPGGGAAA

D2 receptor = D2 receptor (Homo sapiens, UniProt P14416); assay: Filtration binding assay, dopamine (Spiperone-I125); details: D2 receptor, Spiperone-I125; read-out: IC50
Chain of D2 receptor (P14416 whole entry): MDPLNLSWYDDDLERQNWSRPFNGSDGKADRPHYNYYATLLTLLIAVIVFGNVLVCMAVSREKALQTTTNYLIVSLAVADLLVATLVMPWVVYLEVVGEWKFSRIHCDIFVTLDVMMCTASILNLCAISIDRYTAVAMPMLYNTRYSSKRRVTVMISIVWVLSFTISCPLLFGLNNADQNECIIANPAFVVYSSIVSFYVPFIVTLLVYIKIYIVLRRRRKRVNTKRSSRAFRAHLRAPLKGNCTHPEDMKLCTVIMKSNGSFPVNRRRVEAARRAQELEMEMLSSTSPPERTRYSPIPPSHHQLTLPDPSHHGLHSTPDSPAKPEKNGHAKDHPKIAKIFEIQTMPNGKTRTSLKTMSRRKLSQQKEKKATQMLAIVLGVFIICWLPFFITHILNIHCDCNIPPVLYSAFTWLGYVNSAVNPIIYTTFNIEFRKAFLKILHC

Long-Evans Hooded rats [2] = details: rat, in vivo; for Total Entries (EPM), % Change / Total Entries (EPM), Mean / reduction of total number of entries into various zones of the maze: male, Long-Evans Hooded; for Total Entries (EPM), % Change / Total Entries (EPM), Mean / reduction of total number of entries into various zones of the maze / % Open Arm Entries (EPM), % Change / % Open Arm Entries (EPM), Mean / % Open Arm Time (EPM), % Change / % Open Arm Time (EPM), Mean / percent open arm entries, increase as compared to vehicle: po
mu opioid receptor = mu opioid receptor (Homo sapiens, UniProt P35372); assay: Filtration binding assay: mu opioid receptor
Chain of mu opioid receptor (P35372 whole entry): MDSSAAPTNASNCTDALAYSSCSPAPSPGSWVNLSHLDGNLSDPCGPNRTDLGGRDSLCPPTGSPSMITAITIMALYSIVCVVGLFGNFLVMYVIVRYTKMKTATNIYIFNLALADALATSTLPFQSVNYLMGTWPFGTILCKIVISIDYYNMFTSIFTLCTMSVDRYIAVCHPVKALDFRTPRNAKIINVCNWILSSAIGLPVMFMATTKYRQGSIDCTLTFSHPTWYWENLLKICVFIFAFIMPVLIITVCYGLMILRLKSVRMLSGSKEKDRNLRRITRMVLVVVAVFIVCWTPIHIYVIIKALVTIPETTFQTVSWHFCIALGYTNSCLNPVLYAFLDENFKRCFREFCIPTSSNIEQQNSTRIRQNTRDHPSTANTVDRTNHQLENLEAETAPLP

Chain of kappa opioid receptor (P41145 whole entry): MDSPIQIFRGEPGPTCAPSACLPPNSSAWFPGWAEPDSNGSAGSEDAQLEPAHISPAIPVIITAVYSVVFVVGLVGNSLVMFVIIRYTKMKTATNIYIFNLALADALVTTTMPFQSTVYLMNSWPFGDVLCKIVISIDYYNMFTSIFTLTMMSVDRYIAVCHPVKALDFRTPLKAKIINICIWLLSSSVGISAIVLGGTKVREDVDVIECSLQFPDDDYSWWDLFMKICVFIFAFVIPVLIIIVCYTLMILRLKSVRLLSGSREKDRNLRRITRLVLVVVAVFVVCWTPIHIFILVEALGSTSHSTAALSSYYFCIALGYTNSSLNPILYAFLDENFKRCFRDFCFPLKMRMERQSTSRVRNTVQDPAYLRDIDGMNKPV

SMILES: NC[C@H](O)CN1CN(c2ccc(F)cc2)C2(CCN([C@@H]3Cc4cccc5cccc3c45)CC2)C1=O [Compound #424, (R)-8-Acenaphthen-1-yl-3-(3-amino-2-hydroxy-(S)-propyl)-1-(4-fluoro-phenyl)-1,3,8-triaza-spiro[4.5]decan-4-one]
- pIC50 (kappa opioid receptor): 6.22
- Horizontal Activity (SMA), % Change (Long-Evans Hooded rats [1]; 0.3 mg/kg): 5.3%
- Horizontal Activity (SMA), Mean (Long-Evans Hooded rats [1]; 0.3 mg/kg): 3033
- Vertical Movement (SMA), % Change (Long-Evans Hooded rats [1]; 0.3 mg/kg): 11.2%
- Vertical Movement (SMA), Mean (Long-Evans Hooded rats [1]; 0.3 mg/kg): 54.6
- Horizontal Activity (SMA), % Change (Long-Evans Hooded rats [1]; 1 mg/kg): −4.5%
- Horizontal Activity (SMA), Mean (Long-Evans Hooded rats [1]; 1 mg/kg): 2752
- Vertical Movement (SMA), % Change (Long-Evans Hooded rats [1]; 1 mg/kg): 2.4%
- Vertical Movement (SMA), Mean (Long-Evans Hooded rats [1]; 1 mg/kg): 50.3
- reduction in number of vertical movements (rearing behavior) (Long-Evans Hooded rats [1]; 1 mg/kg): 17.8%
- Horizontal Activity (SMA), % Change (Long-Evans Hooded rats [1]; 3 mg/kg): 14.5%
- Horizontal Activity (SMA), Mean (Long-Evans Hooded rats [1]; 3 mg/kg): 3300
- Vertical Movement (SMA), % Change (Long-Evans Hooded rats [1]; 3 mg/kg): 15.7%
- Vertical Movement (SMA), Mean (Long-Evans Hooded rats [1]; 3 mg/kg): 56.8
- reduction in horizontal activity (Long-Evans Hooded rats [1]; 3 mg/kg): 55%
- reduction in number of vertical movements (rearing behavior) (Long-Evans Hooded rats [1]; 3 mg/kg): 73.4%
- Horizontal Activity (SMA), % Change (Long-Evans Hooded rats [1]; 10 mg/kg): −10.2%
- Horizontal Activity (SMA), Mean (Long-Evans Hooded rats [1]; 10 mg/kg): 2588
- Vertical Movement (SMA), % Change (Long-Evans Hooded rats [1]; 10 mg/kg): −10.1%
- Vertical Movement (SMA), Mean (Long-Evans Hooded rats [1]; 10 mg/kg): 44.2
- reduction in horizontal activity (Long-Evans Hooded rats [1]; 10 mg/kg): 83.7%
- reduction in number of vertical movements (rearing behavior) (Long-Evans Hooded rats [1]; 10 mg/kg): 93.9%
- pIC50 (delta opioid receptor): 6.55
- pIC50 (D2 receptor): 6.56
- Total Entries (EPM), % Change (Long-Evans Hooded rats [2]; 0.3 mg/kg): −6.9%
- Total Entries (EPM), Mean (Long-Evans Hooded rats [2]; 0.3 mg/kg): 90.0
- Total Entries (EPM), % Change (Long-Evans Hooded rats [2]; 1 mg/kg): −5.3%
- Total Entries (EPM), Mean (Long-Evans Hooded rats [2]; 1 mg/kg): 91.5
- reduction of total number of entries into various zones of the maze (Long-Evans Hooded rats [2]; 1 mg/kg): 18.6%
- Total Entries (EPM), % Change (Long-Evans Hooded rats [2]; 3 mg/kg): −0.4%
- Total Entries (EPM), Mean (Long-Evans Hooded rats [2]; 3 mg/kg): 96.3
- reduction of total number of entries into various zones of the maze (Long-Evans Hooded rats [2]; 3 mg/kg): 60.3%
- Total Entries (EPM), % Change (Long-Evans Hooded rats [2]; 10 mg/kg): 6.1%
- Total Entries (EPM), Mean (Long-Evans Hooded rats [2]; 10 mg/kg): 102.6
- reduction of total number of entries into various zones of the maze (Long-Evans Hooded rats [2]; 10 mg/kg): 76.7%
- percent open arm entries (Long-Evans Hooded rats [2]): significant increases
- percent open arm time (Long-Evans Hooded rats [2]): significant increases
- percent open arm time, increase as compared to vehicle (Long-Evans Hooded rats [2]): 97.5%
- % Open Arm Entries (EPM), % Change (Long-Evans Hooded rats [2]; 0.3 mg/kg): 33.8%
- % Open Arm Entries (EPM), Mean (Long-Evans Hooded rats [2]; 0.3 mg/kg): 7.33%
- % Open Arm Time (EPM), % Change (Long-Evans Hooded rats [2]; 0.3 mg/kg): 70.1%
- % Open Arm Time (EPM), Mean (Long-Evans Hooded rats [2]; 0.3 mg/kg): 9.80%
- % Open Arm Entries (EPM), % Change (Long-Evans Hooded rats [2]; 1 mg/kg): 36.7%
- % Open Arm Entries (EPM), Mean (Long-Evans Hooded rats [2]; 1 mg/kg): 7.49%
- % Open Arm Time (EPM), % Change (Long-Evans Hooded rats [2]; 1 mg/kg): 69.4%
- % Open Arm Time (EPM), Mean (Long-Evans Hooded rats [2]; 1 mg/kg): 9.76%
- % Open Arm Entries (EPM), % Change (Long-Evans Hooded rats [2]; 3 mg/kg): 44.5%
- % Open Arm Entries (EPM), Mean (Long-Evans Hooded rats [2]; 3 mg/kg): 7.92%
- % Open Arm Time (EPM), % Change (Long-Evans Hooded rats [2]; 3 mg/kg): 75.3%
- % Open Arm Time (EPM), Mean (Long-Evans Hooded rats [2]; 3 mg/kg): 10.1%
- percent open arm entries, increase as compared to vehicle (Long-Evans Hooded rats [2]; 3 mg/kg): 205%
- % Open Arm Entries (EPM), % Change (Long-Evans Hooded rats [2]; 10 mg/kg): 36.7%
- % Open Arm Entries (EPM), Mean (Long-Evans Hooded rats [2]; 10 mg/kg): 7.49%
- % Open Arm Time (EPM), % Change (Long-Evans Hooded rats [2]; 10 mg/kg): 30.9%
- % Open Arm Time (EPM), Mean (Long-Evans Hooded rats [2]; 10 mg/kg): 7.54%
- percent open arm entries, increase as compared to vehicle (Long-Evans Hooded rats [2]; 10 mg/kg): 237%
- pIC50 (mu opioid receptor): 6.55
